# Data from patent publication US11899019B2, “Method for predicting efficacy of anti-PD-1 antibody or anti-PD-L1 antibody therapy, method for evaluating cancer grade, and method for enhancing efficacy of anti-PD-1 antibody or anti-PD-L1 antibody therapy” (J-Pharma Co., Ltd., priority 2017, dated 2024).
# Where “and” joins values, the source holds several entries; their conditions need not be identical. Equal values may be shown once. Marks after values point to notes of the source that are not given here.
# What was measured:
# LAT1 mRNA [1] = assay: siRNA knockdown, LAT1 mRNA by quantitative PCR in WiDr cells; assay type: cell-based, human; details: 48 hours after siRNA introduction, relative value with control siRNA = 1, n = 4
# Method: (§1) The suppression of mRNA expression of PD-L1 or LAT1 at the transcriptional level was attempted using siRNA. WiDr cells (derived from human colon-adenocarcinoma), SKN cells (human uterine leiomyosarcoma cells), and H520 cells (human pulmonary squamous cell carcinoma cells) were seeded in culture dishes. siRNA that suppresses the mRNA expression of PD-L1, siRNA that suppresses the mRNA expression of LAT1, or a control siRNA was introduced into cells. As the siRNA, Silencer (registered trademark) Select siRNAs of the Ambion (registered trademark) series from Thermo Fisher Scientific K.K. Specifically, siPD-L1 #2 (siRNA ID: s26548) set forth in SEQ ID NOs: 1 and 2 was used as the siRNA for suppressing the mRNA expression of PD-L1, siLAT1 #3 (siRNA ID: s15653) set forth in SEQ ID NOs: 3 and 4 was used as the siRNA for suppressing the mRNA expression of LAT1, and Silencer Select Negative control #2 (Cat #: 390847) was used as the control siRNA. Cells were collected 48 hours later, when the suppression effect on expression tends to be prominent, and mRNA expression levels of LAT1 and PD-L1 per cell were analyzed by quantitative PCR.
# (§2) In Table 7, the mRNA expression levels per cell are expressed as relative values, with the mRNA expression level in the cells, to which the control siRNA was introduced, being 1. […]
# PD-L1 mRNA [2] = assay: siRNA knockdown, PD-L1 mRNA by quantitative PCR in WiDr cells; assay type: cell-based, human; details: 48 hours after siRNA introduction, relative value with control siRNA = 1, n = 4
# Method: as §1, §2
# LAT1 mRNA [3] = assay: siRNA knockdown, LAT1 mRNA by quantitative PCR in SKN cells; assay type: cell-based, human; details: 48 hours after siRNA introduction, relative value with control siRNA = 1, n = 4
# Method: as §1, §2
# PD-L1 mRNA [4] = assay: siRNA knockdown, PD-L1 mRNA by quantitative PCR in SKN cells; assay type: cell-based, human; details: 48 hours after siRNA introduction, relative value with control siRNA = 1, n = 4
# Method: as §1, §2
# LAT1 mRNA [5] = assay: siRNA knockdown, LAT1 mRNA by quantitative PCR in H520 cells; assay type: cell-based, human; details: 48 hours after siRNA introduction, relative value with control siRNA = 1, n = 4
# Method: as §1, §2
# PD-L1 mRNA [6] = assay: siRNA knockdown, PD-L1 mRNA by quantitative PCR in H520 cells; assay type: cell-based, human; details: 48 hours after siRNA introduction, relative value with control siRNA = 1, n = 4
# Method: as §1, §2
# [7] = test system: advanced non-small cell lung cancers (Stage III/IV); assay: Response to nivolumab in non-small cell lung cancer patients, determined by CT in accordance with RECIST; assay type: in vivo, human
# Method: Cancer tissues were collected from 21 patients with first line anticancer therapy resistant/relapsed advanced non-small cell lung cancers (Stage III/IV) incorporated in this examination, and the expressions of LAT1 and PD-L1 were examined by immunohistochemistry using an anti-LAT1 antibody and an anti-PD-L1 antibody. Tumors were determined as positive when the cell membrane of the tumors, together with PD-L1 and LAT1, were stained. Tumors having 10% or more of PD-L1-positive cells were defined as having high PD-L1 expression, and tumors having 25% or more of LAT1-positive cells were defined as having high LAT1 expression.
# The response rate was evaluated in accordance with the international criteria for which the tumor sizes are measured by CT and the tumors are classified into response, progression, or stable. The response refers to cases where 30% or more decrease is observed in the longer axis of the tumor after the administration of the agent. The progression refers to cases where the 20% or more increase is observed in the longer axis of the tumor after the administration of the agent. The stable refers to cases where the shrinkage of the tumor is insufficient to classify it as response and the increase of the tumor in comparison with the minimum sum of the longest axis after the start of the therapy is insufficient to classify it as progression.
# PD-L1 mRNA [8] = assay: Change of PD-L1 expression level by JPH2O3, quantitative PCR in HuccT1 cells; assay type: cell-based, human; details: 30 μM, 24 hours treatment
# Method: (§3) The LAT1 activity was suppressed using an inhibitor JPH2O3 instead of the gene suppression using siRNA, and it was examined whether results similar to Test Example 5 would be obtained. JPH2O3 is O-(5-amino-2-phenylbenzoxazol-7-yl)methyl-3,5-dichloro-L-tyrosine. HuccT1 cells (derived from human bile duct cancer) and OST cells (derived from human fibrosarcoma of bone) were seeded in culture dishes. After treatment with 30 μM of JPH2O3 (LAT1 selective inhibitor) for 24 hours, cells were collected and mRNA expression levels of PD-L1 were analyzed by quantitative PCR.
# (§4) In Table 8, the mRNA expression levels per cell are expressed as relative values, with the expression level of the control that was not treated with JPH2O3 being 1. In both HuccT1 cells and OST cells, the expression of PD-L1 was increased. […] Moreover, since the inhibition of LAT1 increased the expression of PD-L1, it is considered that the LAT1 inhibition therapy can increase the expression level of PD-L1 as well as reduce the expression level or activity of LAT1 in patients. In other words, it is considered that the expression level of PD-L1 in patients can be brought close to those in patients of the P-predominance type by the LAT1 inhibition therapy.
# PD-L1 mRNA [9] = assay: Change of PD-L1 expression level by JPH2O3, quantitative PCR in OST cells; assay type: cell-based, human; details: 30 μM, 24 hours treatment
# Method: as §3, §4
# [10] = PD-L1 high expression group (8 patients), RECIST
# [11] = PD-L1 low expression group (13 patients), RECIST
# [12] = high LAT1 expression group (9 patients), RECIST
# [13] = low LAT1 expression group (12 patients), RECIST
# [14] = single patient of FIG. 8, high PD-L1 and low LAT1 expression
# [15] = relative value with untreated control = 1, n = 4
# [16] = relative value with untreated control = 1, n = 4, listed as JPH2O3
compound,measurement,setting,value
"si-PD-L1: Silencer Select siRNA set forth in SEQ ID NOs: 1 and 2, suppressing the mRNA expression of PD-L1 (chain 1 GGACUCACUUGGUAAUUCUTT; chain 2 AGAAUUACCAAGUGAGUCCTT; chemistry not given here)",LAT1 mRNA expression level,LAT1 mRNA [1],5.01***
same,PD-L1 mRNA expression level,PD-L1 mRNA [2],0.46
same,LAT1 mRNA expression level,LAT1 mRNA [3],1.52***
same,PD-L1 mRNA expression level,PD-L1 mRNA [4],0.24
same,LAT1 mRNA expression level,LAT1 mRNA [5],2.29***
same,PD-L1 mRNA expression level,PD-L1 mRNA [6],0.37
nivolumab,patients exhibited a response,[7]; [10],4 patients
same,patients exhibited progression,[7]; [10],1 patient
same,patients exhibited a response,[7]; [11],3 patients
same,patients exhibited progression,[7]; [11],7 patients
same,patients exhibited a response,[7]; all 21 patients,7 patients
same,patients exhibited no response,[7]; all 21 patients,14 patients
same,patients exhibited progression,[7]; all 21 patients,7 patients
same,response rate,[7]; all 21 patients,33%
same,patients exhibited a response,[7]; [12],1 patient
same,patients exhibited progression,[7]; [12],6 patients and 5 patients
same,patients exhibited a response,[7]; [13],4 patients and 6 patients
same,patients exhibited progression,[7]; [13],3 patients and 2 patients
same,outcome of nivolumab treatment,[7]; [14],responded
same,progression-free survival,[7]; [14],≥ 10 months
same,outcome of nivolumab treatment,"[7]; single patient of FIG. 9, high LAT1 and low PD-L1 expression",progression
same,outcome of nivolumab treatment,"[7]; single patient of FIG. 10, high PD-L1 and high LAT1 expression",progression
"si-LAT1: Silencer Select siRNA set forth in SEQ ID NOs: 3 and 4, suppressing the mRNA expression of LAT1 (chain 1 UGUCCAAUCUAGAUCCCAATT; chain 2 UUGGGAUCUAGAUUGGACACA; chemistry not given here)",LAT1 mRNA expression level,LAT1 mRNA [1],0.11
same,PD-L1 mRNA expression level,PD-L1 mRNA [2],1.82***
same,LAT1 mRNA expression level,LAT1 mRNA [3],0.06
same,PD-L1 mRNA expression level,PD-L1 mRNA [4],1.04***
same,LAT1 mRNA expression level,LAT1 mRNA [5],0.11
same,PD-L1 mRNA expression level,PD-L1 mRNA [6],0.82***
"Nc1cc(COc2c(Cl)cc(C[C@H](N)C(=O)O)cc2Cl)c2oc(-c3ccccc3)nc2c1 [JPH203, O-(5-amino-2-phenylbenzoxazol-7-yl)methyl-3,5-dichloro-L-tyrosine]",PD-L1 mRNA expression level,PD-L1 mRNA [8]; [15],12.26**
same,PD-L1 mRNA expression level,PD-L1 mRNA [8]; [16],increased
same,PD-L1 mRNA expression level,PD-L1 mRNA [9]; [15],2.79*
same,PD-L1 mRNA expression level,PD-L1 mRNA [9]; [16],increased
